According to US9833433B1, “Compositions, methods of use, and methods of treatment” (priority 2013, dated 2017):

How the values were obtained:
catalepsy = assay: Bar test (catalepsy); assay type: in vivo, mice; settings: Δ^9-THC 10 mg/kg; 30, 60, and 90 min after injection
Protocol: The classic Morris water maze and fear conditioning tests were performed to determine spatial and fear memory as described previously (Chen et al., 2012). The ‘open field’ test was conducted to detect the locomotor activity and the bar test was used to detect catalepsy (Egashira et al., 2007).
The cataleptic effect of Δ^9-THC was detected using the bar test as described previously with modification (Egashira et al., 2007; Pertwee and Wickens, 1991). Briefly, the front paws of each mouse were placed on an elevated rod (0.5 cm in diameter and 3.5 cm from the bottom of the test box) and the duration of time that the mouse kept motionless was determined. The test was conducted 30, 60, and 90 min after Δ^9-THC injection. Celebrex was injected 30 min prior to Δ^9-THC injection.

[1] = test system: dendritic spines of CA1 pyramidal neurons; assay: Two-photon imaging of dendritic spines in CA1 pyramidal neurons; assay type: in vivo, mice; settings: repeated Δ^9-THC exposure; Thy1-GFP mice
Protocol: Morphology of dendritic spines in hippocampal CA1 pyramidal neurons was determined in GFP-expressing transgenic mice using a two-photon laser scanning microscope as described previously (Chen et al., 2012). Shape, size, and density of spines were measured from the three-dimensional reconstructions using NeuronStudio Version 0.9.92.
Morphology of dendritic spines in hippocampal CA1 pyramidal neurons was determined in GFP-expressing transgenic mice treated with vehicle, Δ^9-THC or NS398+Δ^9-THC using a two-photon laser scanning microscope (Chameleon hands-free ultrafast Ti: sapphire laser with an Olympus scan head) with Olympus FLUOVIEW 300 software (Chen et al., 2012). Shape (thin, mushroom, or stubby), size, density, and volume of spines were measured from the three-dimensional reconstructions (Z stacks: 1μ step for the whole cell and 0.1μ step for a segment of dendrites) using AutoQuant X2 or 3D deconvolution plugin of Image J (http://bigwww.epfl.ch/algorithms/deconvolutionlab) and NeuronStudio (for 3D reconstruction of imaged dendritic spines, Version 0.9.92; http://research.mssm.edu/cnic/tools-ns.html, CNIC, Mount Sinai School of Medicine). […] The following parameters were used in analyzing and quantifying spines using NeuronStudio: Voxel size was set as 0.029*0.029*0.3 μm. […]

GluA1, GluN2A, GluN2B = assay: Immunoblot and surface biotinylation of glutamate receptor subunits in hippocampus; assay type: in vivo; settings: WT mice; Δ^9-THC for 7 days
Protocol: Western blot assay was conducted using specific antibodies (Table S1) to determine expressions of COX-2, glutamate receptor subunits, PSD-95, G-protein subunits, phosphoproteins, BACE1 and neprilysin in hippocampal tissue and/or in cultured cells as described previously (Chen et al., 2012). Surface biotinylation assays were performed to determine surface expression of glutamate receptor subunits in hippocampal slices as described previously (Fan et al., 2010).
Surface biotinylation assays were performed in hippocampal slices as described previously (Chen et al., 2006; Fan et al., 2010). Briefly, hippocampal slices were cut at thickness of 400 μm using a vibratome from mice that received vehicle or Δ^9-THC for 7 consecutive days, and then transferred to a six-well plate and incubated on ice for 1 h in carbogenated ACSF containing 500 μM Sulfo-NHS-SS-biotin (Thermo-Pierce, Rockford, Ill.). Collected tissue was then washed three times for 5 min with ice-cold ACSF containing 10 mM glycine, and was immediately homogenized in 800 μL ice-cold lysis buffer containing 20 mM Tris-HCl, pH 7.5, 1% Triton X-100, 50 mM NaCl, 1 mM EDTA, 0.1% sodium dodecyl sulfate, and a cocktail of protease inhibitors (Sigma, St. Louis, Mo.). After incubation on ice for 30 min, the homogenate was centrifuged at 18000 g at 4° C. for 10 min. Supernatants were collected. […]

Aβ plaques = Aβ plaques in 5XFAD APP transgenic mice (immunohistochemistry); assay type: in vivo; settings: Δ^9-THC 3 mg/kg once daily for 4 weeks
Protocol: Immunohistochemical analyses were performed to determine total Aβ in coronal brain sections as described previously (Chen et al., 2012). 5XFAD APP transgenic mice that vehicle, or Δ^9-THC (3 mg/kg) or Δ^9-THC+Celebrex (1 mg/kg) for 4 weeks at 4 to 6 months of age were anesthetized with ketamine/Xylazine (200/10 mg/kg) and subsequently transcardially perfused with PBS followed by 4% paraformaldehyde in phosphate buffer. The brains were quickly removed from the skulls and fixed in 4% paraformaldehyde overnight, and then transferred into the PBS containing 30% sucrose until sinking to the bottom of the small glass jars. Cryostat sectioning was made on a freezing Vibratome at 40 μm and series sections (10 to 12 slices) were collected in 0.1M phosphate buffer. […] 4′-6-Diamidino-2-phenylindole (DAPI), a fluorescent stain that binds strongly to DNA, was used it to detect cell nuclei in the sections. The sections were then mounted on slides for immunofluorescence detection using a Zeiss fluorescence microscope.

degenerated neurons = assay: Degenerated neurons by Fluoro-Jade C staining in 5XFAD APP transgenic mice; assay type: in vivo; settings: Δ^9-THC 3 mg/kg once daily for 4 weeks
Protocol: Degenerated neurons were detected using Fluoro-Jade C (FJC), which is an anionic dye that specifically stains the soma and neurites of degenerating neurons and thus is unique as a neurodegenerative marker. Cryostat cut sections were incubated in the solution with FJC (0.0001% solution, EMD Millipore) and DAPI (0.5 μg/ml) for 10 min, followed by 3×1-min wash with distilled water. Slices were dried naturally at room temperature without light. The images were taken using a Zeiss deconvolution microscope with SlideBook 5.0 software as described previously (Chen et al., 2012).

Akt, ERK, and p38MAPK = assay: Phosphorylation of Akt, ERK and p38MAPK in NG108-15 cells; settings: Δ^9-THC 30 μM

With CCCCCc1cc(O)c2c(c1)OC(C)(C)[C@@H]1CCC(C)=C[C@@H]21 [Δ^9-THC, Δ^9-tetrahydrocannabinol] the cataleptic effect (catalepsy) was “cataleptic and locomotor depressive effects”, the “density of dendritic spines” value [1] was “significantly reduced density of dendritic spines of CA1 pyramidal neurons” and the “total and surface expressions of GluA1, GluN2A, GluN2B (immunoblot)” value (GluA1, GluN2A, GluN2B) was “significantly decreased”. The “numbers of Aβ plaques” value (Aβ plaques; absence of Celebrex) was “significantly reduced”, the “numbers of Aβ plaques” value (Aβ plaques; presence of Celebrex 1 mg/kg) was “significantly reduced” and the “numbers of degenerated neurons” value (degenerated neurons; absence of Celebrex) was “significantly reduced”. For the same compound, the “numbers of degenerated neurons” value (degenerated neurons; presence of Celebrex 1 mg/kg) was “significantly reduced” and the “phosphorylation of Akt, ERK, and p38MAPK” value (Akt, ERK, and p38MAPK) was “induced phosphorylation of these signaling molecules”.
